Patent US11389415B2, “Methods of regulating cannabinoid receptor activity-related disorders and diseases” (The United States of America as represented by the …, priority 2012, dated 2022)
Like-named read-outs stand apart in the source and are kept apart here.

How the values were obtained:
HEP3B [1] = assay: tumor cell growth (CTG), HEP3B; conditions: Homo sapiens, Hep3B
HEP3B [2] = assay: [3H]-Thymidine incorporation in 96-well plates (Thy), HEP3B; conditions: Homo sapiens, Hep3B, read-out: IC50 (uM), HEP3B (Liver Cancer)
LN-18 = assay: tumor cell growth, LN-18; conditions: Homo sapiens, LN-18, read-out: IC50 (uM), LN-18 (CNS)
A172 = assay: tumor cell growth, A172; conditions: Homo sapiens, A 172, read-out: IC50 (uM), A172 (CNS)
MCF7 = assay: tumor cell growth, MCF7; conditions: Homo sapiens, MCF7, read-out: IC50 (uM), MCF7 (Breast C)
HCT116 [3] = assay: tumor cell growth (CTG), HCT116; conditions: Homo sapiens
H460 = assay: tumor cell growth (CTG), H460 / NCIH460; conditions: Homo sapiens
LN229 = assay: [3H]-Thymidine incorporation in 96-well plates (Thy), LN229; conditions: Homo sapiens, read-out: IC50 (uM), LN229 (CNS Cancer)
U118 = assay: tumor cell growth, U118; conditions: read-out: IC50 (uM), U118 (CNS)
PANC-1 = assay: tumor cell growth, PANC-1; conditions: Homo sapiens, PANC-1, read-out: IC50 (uM), PANC-1 (Pancreatic C)
Du-145 = assay: tumor cell growth, Du-145; conditions: Homo sapiens, DU-145, read-out: IC50 (uM), Du-145 (Prostate C)
U87 = assay: tumor cell growth, U87; conditions: Homo sapiens, U-87 MG, read-out: IC50 (uM), U87 (CNS)
HT29 [4] = assay: tumor cell growth (CTG), HT29; conditions: Homo sapiens
HEPG2 = assay: tumor cell growth, HEPG2; conditions: Homo sapiens, HepG2, read-out: IC50 (uM), HEPG2 (Liver C)
A549 = assay: tumor cell growth, A549; conditions: Homo sapiens, A549, read-out: IC50 (uM), A549 (NSCLC)
PC3 [5] = assay: [3H]-Thymidine incorporation in 96-well plates (Thy), PC3; conditions: Homo sapiens, read-out: IC50 (uM), PC3 (Prostrate Cancer)
MDAMB231 = assay: tumor cell growth, MDAMB231; conditions: Homo sapiens, MDA-MB-231, read-out: IC50 (uM), MDAMB231 (Breast C)
PC3 [6] = assay: tumor cell growth (CTG), PC3; conditions: Homo sapiens
GL261 = assay: tumor cell growth, GL261; conditions: Mus musculus, GL261, read-out: IC50 (uM), GL261 (CNS)
LN-229 = assay: tumor cell growth (CTG), LN-229 / LN229; conditions: Homo sapiens
U251 = assay: tumor cell growth, U251; conditions: Homo sapiens, U-251, read-out: IC50 (uM), U251 (CNS)
NCIH460 = assay: Thymidine (Thy) 96 well, NCIH460; conditions: Homo sapiens, read-out: IC50 (uM), NCIH460 (NSCLC)
HT29 [7] = assay: Thymidine (Thy) 96 well, HT29; conditions: Homo sapiens, read-out: IC50 (uM), HT29 (Colon Cancer)
HCT116 [8] = assay: Thymidine (Thy) 96 well, HCT116; conditions: Homo sapiens, read-out: IC50 (uM), HCT116 (Colon Cancer)

Compound: COc1cccc2c1C(=O)c1c(O)c3c(c(O)c1C2=O)C[C@@](O)(C(=O)CO)C[C@@H]3O[C@H]1C[C@H](N)[C@H](O)[C@H](C)O1 [Doxorubicin, reference compound]
- IC50 (HEP3B [1]; 48 h, read-out: IC50 (uM), HEP3B (Liver Cancer), 96 well CTG 2 days treatment): 0.52 µM
- IC50 (HEP3B [1]; 72 h, read-out: IC50 (uM), HEP3B (Liver Cancer), 384well CTG 3 days treatment −1): 0.43 µM
- IC50 (HEP3B [1]; 72 h, read-out: IC50 (uM), HEP3B (Liver Cancer), 384well CTG 3 days treatment −2): 0.35 µM
- IC50 (HEP3B [1]; read-out: IC50 (uM), HEP3B (Liver C), Table 6): 0.43 µM
- IC50 (HEP3B [2]; 24 h): 0.04 µM
- IC50 (HEP3B [2]; 48 h): 0.02 µM
- IC50 (LN-18): 0.53 µM
- IC50 (A172): 0.46 µM
- IC50 (MCF7): 0.3 µM
- IC50 (HCT116 [3]; HCT-116, 24 h, read-out: IC50 (uM), HCT116 (Colon Cancer), 96 well CTG 1 day treatment): 0.21 µM
- IC50 (HCT116 [3]; HCT-116, 48 h, read-out: IC50 (uM), HCT116 (Colon Cancer), 96 well CTG 2 days treatment): 0.23 µM
- IC50 (HCT116 [3]; HCT-116, 72 h, read-out: IC50 (uM), HCT116 (Colon Cancer), 384well CTG 3 days treatment −1): 0.06 µM
- IC50 (HCT116 [3]; HCT-116, 72 h, read-out: IC50 (uM), HCT116 (Colon Cancer), 384well CTG 3 days treatment −2): 0.21 µM
- IC50 (HCT116 [3]; HCT-116, read-out: IC50 (uM), HCT116 (Colon C), Table 6): 0.06 µM
- IC50 (H460; NCI-H460, 24 h, read-out: IC50 (uM), NCIH460 (NSCLC), 96 well CTG 1 day treatment): 0.31 µM
- IC50 (H460; NCI-H460, 48 h, read-out: IC50 (uM), NCIH460 (NSCLC), 96 well CTG 2 days treatment): 0.12 µM
- IC50 (H460; NCI-H460, 72 h, read-out: IC50 (uM), NCIH460 (NSCLC), 384well CTG 3 days treatment −1): 0.02 µM
- IC50 (H460; NCI-H460, 72 h, read-out: IC50 (uM), NCIH460 (NSCLC), 384well CTG 3 days treatment −2): 0.11 µM
- IC50 (H460; NCI-H460, read-out: IC50 (uM), H460 (NSCLC), Table 6): 0.02 µM
- IC50 (LN229; LN-229, 24 h): 0.1 µM
- IC50 (LN229; LN-229, 48 h): 0.07 µM
- IC50 (U118): 0.81 µM
- IC50 (PANC-1): 2.97 µM
- IC50 (Du-145): 0.38 µM
- IC50 (U87): 0.21 µM
- IC50 (HT29 [4]; HT-29, 48 h, read-out: IC50 (uM), HT29 (Colon Cancer)): 0.52 µM
- IC50 (HT29 [4]; HT-29, 72 h, read-out: IC50 (uM), HT29 (Colon Cancer)): 0.26 µM
- IC50 (HT29 [4]; HT-29, read-out: IC50 (uM), HT29 (Colon C)): 0.26 µM
- IC50 (HEPG2): 0.28 µM
- IC50 (A549): 0.11 µM
- IC50 (PC3 [5]; PC-3, 24 h): 0.04 µM
- IC50 (PC3 [5]; PC-3, 48 h): 0.28 µM
- IC50 (MDAMB231): 0.68 µM
- IC50 (PC3 [6]; PC-3, 24 h, read-out: IC50 (uM), PC3 (Prostrate Cancer)): 3.02 µM
- IC50 (PC3 [6]; PC-3, 48 h, read-out: IC50 (uM), PC3 (Prostrate Cancer)): 0.93 µM
- IC50 (PC3 [6]; PC-3, 72 h, read-out: IC50 (uM), PC3 (Prostrate Cancer)): 0.91 µM
- IC50 (PC3 [6]; PC-3, read-out: IC50 (uM), PC3 (Prostate C)): 0.91 µM
- IC50 (GL261): 0.17 µM
- IC50 (LN-229; LN-229, 48 h, read-out: IC50 (uM), LN229 (CNS Cancer)): 1.7 µM
- IC50 (LN-229; LN-229, 72 h, read-out: IC50 (uM), LN229 (CNS Cancer)): 0.61 µM
- IC50 (LN-229; LN-229, read-out: IC50 (uM), LN-229 (CNS)): 0.61 µM
- IC50 (U251): 0.17 µM
- IC50 (NCIH460; NCI-H460, 24 h): 0.09 µM
- IC50 (NCIH460; NCI-H460, 48 h): 0.03 µM
- IC50 (HT29 [7]; HT-29, 24 h): 0.11 µM
- IC50 (HT29 [7]; HT-29, 48 h): 0.12 µM
- IC50 (HCT116 [8]; HCT-116, 24 h): 0.12 µM
- IC50 (HCT116 [8]; HCT-116, 48 h): 0.14 µM
